Source: PubChem BioAssay AID248 (DTP/NCI, 2004)
Where “and” joins values, the source holds several entries; their conditions need not be identical. Equal entries are not always repeated. Inconclusive results and toxic doses are left out. No stated cut-off is given here; in the data, active means T/C of 150% or more; inactive means T/C below 125%.

Test system: L1210 leukemia ip in BDF1 mice, survival T/C
Test: NCI In Vivo Anticancer Drug Screen. Data for tumor model L1210 Leukemia (intraperitoneal) in B6D2F1 (BDF1) mice
Settings: endpoint: mean survival time, higher = longer survival
Summary of the method: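 Tumor cells were implanted, animals were treated, and survival was followed. The result divides the treated measurement by the vehicle-control measurement.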

[1] = dose: 2.5 mg/kg/injection, schedule: Q01DX009 (ip), vehicle: Klucel (hydroxypropylcellulose) (HPC)
[2] = dose: 2.5 mg/kg/injection, schedule: Q04DX003 (ip), vehicle: Klucel (hydroxypropylcellulose) (HPC)
[3] = dose: 5.0 mg/kg/injection, schedule: Q01DX009 (ip), vehicle: Klucel (hydroxypropylcellulose) (HPC)
[4] = dose: 5.0 mg/kg/injection, schedule: Q04DX003 (ip), vehicle: Klucel (hydroxypropylcellulose) (HPC)
[5] = dose: 10.0 mg/kg/injection, schedule: Q01DX009 (ip), vehicle: Klucel (hydroxypropylcellulose) (HPC)
[6] = dose: 10.0 mg/kg/injection, schedule: Q04DX003 (ip), vehicle: Klucel (hydroxypropylcellulose) (HPC)
[7] = dose: 100.0 mg/kg/injection, schedule: Q01DX001 (ip), vehicle: saline
[8] = dose: 200.0 mg/kg/injection, schedule: Q01DX001 (ip), vehicle: saline
[9] = dose: 400.0 mg/kg/injection, schedule: Q01DX001 (ip), vehicle: saline
[10] = dose: 100.0 mg/kg/injection, schedule: Q01DX009 (ip), vehicle: saline with Tween-80
[11] = dose: 100.0 mg/kg/injection, schedule: Q04DX003 (ip), vehicle: saline with Tween-80
[12] = dose: 200.0 mg/kg/injection, schedule: Q01DX009 (ip), vehicle: saline with Tween-80
[13] = dose: 400.0 mg/kg/injection, schedule: Q01DX009 (ip), vehicle: saline with Tween-80
[14] = dose: 100.0 mg/kg/injection, schedule: Q04DX002 (ip), vehicle: Klucel (hydroxypropylcellulose) (HPC)
[15] = dose: 200.0 mg/kg/injection, schedule: Q04DX002 (ip), vehicle: Klucel (hydroxypropylcellulose) (HPC)
[16] = dose: 400.0 mg/kg/injection, schedule: Q04DX002 (ip), vehicle: Klucel (hydroxypropylcellulose) (HPC)
[17] = dose: 100.0 mg/kg/injection, schedule: Q01DX001 (ip), vehicle: carboxymethylcellulose (CMC)
[18] = dose: 200.0 mg/kg/injection, schedule: Q01DX001 (ip), vehicle: carboxymethylcellulose (CMC)
[19] = dose: 400.0 mg/kg/injection, schedule: Q01DX001 (ip), vehicle: carboxymethylcellulose (CMC)
[20] = dose: 25.0 mg/kg/injection, schedule: Q01DX009 (ip), vehicle: saline
[21] = dose: 50.0 mg/kg/injection, schedule: Q01DX009 (ip), vehicle: saline
[22] = dose: 50.0 mg/kg/injection, schedule: Q04DX003 (ip), vehicle: saline
[23] = dose: 100.0 mg/kg/injection, schedule: Q04DX003 (ip), vehicle: saline
[24] = dose: 100.0 mg/kg/injection, schedule: Q04DX003 (ip), vehicle: Klucel (hydroxypropylcellulose) (HPC)

Measured: T/C

O=C(O)CCCC1CCCCC1.[Cu+2]
inactive: [1] 101 % of control | [2] 97 % of control | [3] 101 % of control | [4] 101 % of control | [5] 92 % of control | [6] 97 % of control

N#CCCN1CCCC1=O
inactive: [7] 103 % of control | [8] 100 % of control | [9] 106 % of control

c1ccc(CNc2nccs2)cc1
inactive: dose: 75.0 mg/kg/injection, schedule: Q01DX001 (ip), vehicle: carboxymethylcellulose (CMC) 96 % of control | dose: 150.0 mg/kg/injection, schedule: Q01DX001 (ip), vehicle: carboxymethylcellulose (CMC) 91 % of control | dose: 300.0 mg/kg/injection, schedule: Q01DX001 (ip), vehicle: carboxymethylcellulose (CMC) 95 % of control

COc1cc(O)c(C(C)=O)c(OC)c1
inactive: [10] 98 % of control | [11] 101 % of control | [12] 96 % of control | dose: 200.0 mg/kg/injection, schedule: Q04DX003 (ip), vehicle: saline with Tween-80 95 % of control | [13] 90 % of control | dose: 400.0 mg/kg/injection, schedule: Q04DX003 (ip), vehicle: saline with Tween-80 93 % of control

O=S(=O)(F)c1cc(Cl)ccc1O
inactive: [14] 115 % of control | [15] 115 % of control | [16] 105 % of control

Nc1cc(Cl)cc2c1-c1ccc(Cl)cc1/C2=N\O
inactive: [17] 100 % of control | [18] 97 % of control | [19] 97 % of control

COc1ccc(C(=O)C(C)(CN(C)C)c2ccccc2)cc1 (centres undefined)
inactive: [20] 93 % of control | dose: 25.0 mg/kg/injection, schedule: Q04DX003 (ip), vehicle: saline 92 % of control | [21] 100 % of control | [22] 94 % of control | dose: 100.0 mg/kg/injection, schedule: Q01DX009 (ip), vehicle: saline 102 % of control | [23] 93 % of control and 101 % of control

CCCCCCCCCCCC[N+](CC)(CC)CC(=O)O
inactive: dose: 12.5 mg/kg/injection, schedule: Q01DX009 (ip), vehicle: saline 88 % of control | [20] 97 % of control | [21] 104 % of control | [22] 111 % of control | [7] 93 % of control | [8] 98 % of control

CC12C(=O)N(C3CCC(=O)NC3=O)C(=O)C1C1CCC2C1 (centres undefined)
inactive: [11] 96 % of control

CCOC(C)=N
inactive: dose: 50.0 mg/kg/injection, schedule: Q01DX001 (ip), vehicle: saline 100 % of control | dose: 50.0 mg/kg/injection, schedule: Q01DX008 (ip), vehicle: saline 102 % of control | [7] 89 % of control and 97 % of control | dose: 100.0 mg/kg/injection, schedule: Q01DX008 (ip), vehicle: saline 112 % of control | [23] 107 % of control | [8] 105 % of control and 111 % of control | dose: 200.0 mg/kg/injection, schedule: Q01DX008 (ip), vehicle: saline 115 % of control | dose: 200.0 mg/kg/injection, schedule: Q04DX003 (ip), vehicle: saline 107 % of control | [9] 115 % of control | dose: 400.0 mg/kg/injection, schedule: Q04DX003 (ip), vehicle: saline 110 % of control

CCC1CN2C(=N1)c1ccccc1-c1cc(Br)ccc12 (centres undefined)
inactive: [1] 104 % of control | [2] 100 % of control | [3] 98 % of control | [4] 100 % of control | [5] 116 % of control | [6] 96 % of control

O=C(NS(=O)(=O)c1ccc(Cl)cc1)c1ccccc1
inactive: [10] 94 % of control | dose: 100.0 mg/kg/injection, schedule: Q04DX003 (ip), vehicle: acetone 104 % of control | dose: 200.0 mg/kg/injection, schedule: Q04DX003 (ip), vehicle: acetone 107 % of control | dose: 400.0 mg/kg/injection, schedule: Q04DX003 (ip), vehicle: acetone 93 % of control

NC(=O)c1ccccc1C(=O)c1ccccc1
inactive: [7] 102 % of control | [8] 104 % of control

c1ccc(CN(CCNc2ccccc2)c2ccccc2)cc1
inactive: dose: 50.0 mg/kg/injection, schedule: Q01DX009 (ip), vehicle: water 97 % of control | dose: 100.0 mg/kg/injection, schedule: Q01DX009 (ip), vehicle: water 94 % of control

Cc1ccc(CCCC(=O)O)c(C)c1
inactive: [10] 105 % of control | [12] 92 % of control | [13] 96 % of control

Clc1ncn[nH]1
inactive: dose: 100.0 mg/kg/injection, schedule: Q04DX003 (ip), vehicle: saline sonified 101 % of control | dose: 200.0 mg/kg/injection, schedule: Q04DX003 (ip), vehicle: saline sonified 106 % of control | dose: 400.0 mg/kg/injection, schedule: Q04DX003 (ip), vehicle: saline sonified 100 % of control

CS(=O)(=O)OCCN(CCOS(C)(=O)=O)c1ccc(C=Nc2cccc(Br)c2)cc1
inactive: [2] 103 % of control | [4] 109 % of control | [6] 117 % of control | [24] 92 % of control

CCCCCCCCCCCCCCCCCC(=O)CS(C)=O (centres undefined)
inactive: [24] 94 % of control | dose: 200.0 mg/kg/injection, schedule: Q04DX003 (ip), vehicle: Klucel (hydroxypropylcellulose) (HPC) 91 % of control | dose: 400.0 mg/kg/injection, schedule: Q04DX003 (ip), vehicle: Klucel (hydroxypropylcellulose) (HPC) 96 % of control

c1ccc2c(c1)CCc1ccccc1CNC2
inactive: dose: 25.0 mg/kg/injection, schedule: Q04DX002 (ip), vehicle: Klucel (hydroxypropylcellulose) (HPC) 111 % of control | dose: 50.0 mg/kg/injection, schedule: Q04DX002 (ip), vehicle: Klucel (hydroxypropylcellulose) (HPC) 106 % of control

CCCN1C(=O)CCC1=O
inactive: dose: 75.0 mg/kg/injection, schedule: Q04DX003 (ip), vehicle: saline 109 % of control | dose: 150.0 mg/kg/injection, schedule: Q04DX003 (ip), vehicle: saline 97 % of control | dose: 300.0 mg/kg/injection, schedule: Q04DX003 (ip), vehicle: saline 101 % of control

CSc1nc(/N=N/Nc2nc(SC)nn2C)n(C)n1
inactive: dose: 100.0 mg/kg/injection, schedule: Q04DX002 (ip), vehicle: saline with Tween-80 93 % of control | dose: 200.0 mg/kg/injection, schedule: Q04DX002 (ip), vehicle: saline with Tween-80 93 % of control | dose: 400.0 mg/kg/injection, schedule: Q04DX002 (ip), vehicle: saline with Tween-80 97 % of control

CC(=O)OC1OC(C2COC(C)(C)O2)C2OC(C)(C)OC12 (centres undefined)
inactive: [17] 103 % of control | [18] 103 % of control | [19] 103 % of control

OC(Cc1ccc(-c2ccccc2)cc1)c1ccccc1 (centres undefined)
inactive: dose: 50.0 mg/kg/injection, schedule: Q01DX001 (ip), vehicle: saline with Tween-80 93 % of control | dose: 100.0 mg/kg/injection, schedule: Q01DX001 (ip), vehicle: saline with Tween-80 91 % of control | dose: 200.0 mg/kg/injection, schedule: Q01DX001 (ip), vehicle: saline with Tween-80 91 % of control

Cc1no[n+]([O-])c1C(N)=O
inactive: [14] 98 % of control | [15] 95 % of control | [16] 98 % of control

CC(C)CCCC(C)C1CCC2C3CC=C4CC(OC(=O)Nc5ccc(S(=O)(=O)c6ccc(F)cc6)cc5)CCC4(C)C3CCC12C (centres undefined)
inactive: dose: 100.0 mg/kg/injection, schedule: Q01DX001 (sc), vehicle: steriod suspending solution 89 % of control | dose: 200.0 mg/kg/injection, schedule: Q01DX001 (sc), vehicle: steriod suspending solution 92 % of control | dose: 400.0 mg/kg/injection, schedule: Q01DX001 (sc), vehicle: steriod suspending solution 100 % of control
